Assay results: US20250188110A1, “SPECIFIC SMALL MOLECULE INHIBITORS THAT BLOCK KMT9 METHYLTRANSFERASE ACTIVITY AND FUNCTION” (ALBERT-LUDWIGS-UNIVERSITÄT FREIBURG, priority 2021, published 2025)
pEC50, pIC50, pKd: −log10 of the molar value. Like-named read-outs stand apart in the source and are kept apart here. One block for each molecule: values may come before it.

What was measured:
PC-3M = experiment: Further cell proliferation assay, X-Celligence RTCA, PC-3M; format: cell-based; conditions: Homo sapiens, castration resistant prostate cancer cells
Protocol: (§1) Compound no. 1 (Name 287) was tested in further cell proliferation assays using different cancer cell lines. Cell proliferation was determined using X-Celligence RTCA system (Roche). For real-time recording of CAL-29, VM-CUB1, SW480, SKBR3, HT-1376, PC-3M, A549, UM-UC-3, DU145 and 22RV1, between 2500 and 20000 cells/well (depending on the cell type) were seeded in 16 well E-plates (Roche). Cells were seeded in presence of DMSO or Compound no. 1 (Name 287) 24 h before seeding in E-plates. Cell indices were automatically recorded every 15 minutes. Relative velocities represent the change of the cell index over time. The ECso values of compound no.

A549 = experiment: Further cell proliferation assay, X-Celligence RTCA, A549; format: cell-based; conditions: Homo sapiens
Protocol: as §1

SW480 = experiment: Further cell proliferation assay, X-Celligence RTCA, SW480; format: cell-based; conditions: Homo sapiens
Protocol: as §1

HT-1376 = experiment: Further cell proliferation assay, X-Celligence RTCA, HT-1376; format: cell-based; conditions: Homo sapiens
Protocol: as §1

DU145 = experiment: Further cell proliferation assay, X-Celligence RTCA, DU145; format: cell-based; conditions: Homo sapiens, DU-145; DU145, castration resistant prostate cancer cells
Protocol: as §1

SKBR3 = experiment: Further cell proliferation assay, X-Celligence RTCA, SKBR3; format: cell-based; conditions: Homo sapiens, SK-BR-3
Protocol: as §1

VM-CUB1 = experiment: Further cell proliferation assay, X-Celligence RTCA, VM-CUB1; format: cell-based; conditions: Homo sapiens, VM-CUB-1
Protocol: as §1

CAL-29 = experiment: Further cell proliferation assay, X-Celligence RTCA, CAL-29; format: cell-based
Protocol: as §1

UM-UC-3 = experiment: Further cell proliferation assay, X-Celligence RTCA, UM-UC-3; format: cell-based; conditions: Homo sapiens, UMUC3
Protocol: as §1

22RV1 = experiment: Further cell proliferation assay, X-Celligence RTCA, 22RV1; format: cell-based; conditions: Homo sapiens; 22RV1, castration resistant prostate cancer cells
Protocol: as §1

KMT9 [1] = biological target: T1, KMT9 (Homo sapiens, UniProt Q9Y5N5); experiment: KMT9 methyltransferase inhibition assay, MTaseGlo luminescence (from entry 155); format: biochemical; conditions: 100 nM KMT9, 5 μM ETF1, 1 μM SAM
T1 sequence (Q9Y5N5 1-214): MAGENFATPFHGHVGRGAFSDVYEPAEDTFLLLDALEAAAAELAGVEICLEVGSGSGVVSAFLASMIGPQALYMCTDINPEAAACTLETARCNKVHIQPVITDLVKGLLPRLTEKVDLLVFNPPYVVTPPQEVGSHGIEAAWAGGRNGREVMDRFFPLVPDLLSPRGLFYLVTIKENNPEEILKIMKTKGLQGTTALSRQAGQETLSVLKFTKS
T1 sequence (Q9UI30 1-120 isoform Q9UI30-2 partner): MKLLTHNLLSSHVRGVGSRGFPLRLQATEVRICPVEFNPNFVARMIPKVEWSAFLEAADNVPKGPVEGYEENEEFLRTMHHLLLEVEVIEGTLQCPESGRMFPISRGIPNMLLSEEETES
Outline: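 KMT9 (100 nM final) pre-incubated with inhibitor for 15 min at room temperature, then reacted with 5 μM ETF1 and 1 μM SAM for 2 h at 30° C. at 2% DMSO final. MTaseGlo luminescence read after 60 min detection; IC50 reported in four potency bins.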

KMT9 [2] = biological target: T1, KMT9; experiment: KMT9 thermal shift assay (SyproOrange); format: binding
Outline: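 ΔTm versus DMSO-only control is reported in bins (>20 K, 15–20 K, 10–15 K, ≤10 K), using Tm from Boltzmann sigmoidal fits of SyproOrange melt curves. KMT9 with compound in pH 8.5 BTP buffer containing MgCl2 and DTT was preincubated at 25° C, then ramped 1° C per 15 s up to 95° C.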

KMT9 [3] = biological target: T1, KMT9; experiment: Microscale thermophoresis (MST) KMT9 binding
Outline: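 Kd from microscale thermophoresis: compound series against 20 nM His-KMT9 labelled via RED-Tris-NTA, buffer 25 mM HEPES (pH 7.5)/100 mM NaCl/1 mM DTT/0.05% Tween, 40% MST power, 100% LED. Reported as classes: A ≤10 nM, B >10–100 nM, C >100–1000 nM, D >1000 nM.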

[4] = IC50 class, MTaseGlo procedure (entries from 155 on), read-out: Inhibition
[5] = ΔTm class, 500 uM compound, 2 μM KMT9, read-out: Thermal shift
[6] = His-tag labelled KMT9 20 nM, Kd class, read-out: MST
[7] = MTaseGlo procedure (entries from 155), read-out: Inhibition (IC50)
[8] = 500 µM compound, 2 μM KMT9, read-out: Thermal shift (ΔTm)
[9] = His-tag labelled KMT9 20 nM, read-out: MST (Kd)
[10] = from entry 155: MTaseGlo assay, read-out: Inhibition
[11] = ΔTm, 500 µM compound, 2 μM KMT9, 5X SO, read-out: Thermal shift
[12] = microscale thermophoresis, His-tag labelled KMT9 (20 nM), read-out: MST

Structure (SMILES): CNc1ncnc2c1ccn2[C@@H]1C[C@H](CNCCCNCCc2cccc(Oc3ccccc3)c2)[C@@H](O)[C@H]1O [Compound 287, (1R,2S,3R,5R)-3-(4-(methylamino)-7H-pyrrolo[2,3-d]pyrimidin-7-yl)-5-(((3-((3-phenoxyphenethyl)amino)propyl)amino)methyl) cyclopentane-1,2-diol]
pEC50 (PC-3M): 4.80
pEC50 (A549): 4.92
pEC50 (SW480): 5.04
pEC50 (HT-1376): 4.90
pEC50 (DU145): 4.72
pEC50 (SKBR3): 5.18
pEC50 (VM-CUB1): 5.21
pEC50 (CAL-29): 5.19
pEC50 (UM-UC-3): 4.77
pEC50 (22RV1): 4.78

Structure (SMILES): Nc1ncnc2c1ccn2[C@@H]1C[C@H](c2cccc(O)c2)[C@@H](O)[C@H]1O [Compound 404, (1R,2S,3R,5R)-3-(4-amino-7H-pyrrolo[2,3-d]pyrimidin-7-yl)-5-(3-hydroxyphenyl) cyclopentane-1,2-diol]
pIC50 (KMT9 [1]; [4]): < 5.00
ΔTm at 500 µM (KMT9 [2]; [5]): ≤ 10 °C
pKd (KMT9 [3]; [6]): < 6.00

Structure (SMILES): CCN1CCC([C@H]2C[C@@H](n3cc(-c4nc(Cc5ccccc5)cs4)c4c(N)nc(Cl)nc43)[C@H](O)[C@@H]2O)CC1 [Compound 504, (1R,2S,3R,5R)-3-[4-amino-5-(4-benzyl-1,3-thiazol-2-yl)-2-chloropyrrolo[2,3-d]pyrimidin-7-yl]-5-(1-ethylpiperidin-4-yl)cyclopentane-1,2-diol]
pIC50 (KMT9 [1]; [4]): 6.00 to 7.00
ΔTm at 500 µM (KMT9 [2]; [5]): > 20 °C
pKd (KMT9 [3]; [6]): ≥ 8.00

Structure (SMILES): Nc1ncnc2c1c(-c1nc(Cc3ccccc3)cs1)cn2[C@@H]1C[C@H](C2=CCCNC2)[C@@H](O)[C@H]1O [Compound 503, (1R,2S,3R,5R)-3-(4-amino-5-(4-benzylthiazol-2-yl)-7H-pyrrolo[2,3-d]pyrimidin-7-yl)-5-(1,2,5,6-tetrahydropyridin-3-yl)cyclopentane-1,2-diol]
pIC50 (KMT9 [1]; [10]): 5.00 to 6.00
ΔTm at 500 µM (KMT9 [2]; [11]): 15 to 20 °C
pKd (KMT9 [3]; [12]): 6.00 to 7.00

Structure (SMILES): Nc1ncnc2c1c(-c1nccs1)cn2[C@@H]1C[C@H](c2ccccc2)[C@@H](O)[C@H]1O [Compound 395, (1R,2S,3R,5R)-3-(4-amino-5-(thiazol-2-yl)-7H-pyrrolo[2,3-d]pyrimidin-7-yl)-5-phenylcyclopentane-1,2-diol]
pIC50 (KMT9 [1]; [10]): < 5.00
ΔTm at 500 µM (KMT9 [2]; [11]): ≤ 10 °C
pKd (KMT9 [3]; [12]): < 6.00

Structure (SMILES): Nc1ncnc2c1ccn2[C@@H]1C[C@H](c2ccccc2)[C@@H](O)[C@H]1O [Compound 385, (1R,2S,3R,5R)-3-(4-amino-7H-pyrrolo[2,3-d]pyrimidin-7-yl)-5-phenylcyclopentane-1,2-diol]
pIC50 (KMT9 [1]; [10]): < 5.00
ΔTm at 500 µM (KMT9 [2]; [11]): ≤ 10 °C
pKd (KMT9 [3]; [12]): < 6.00

Structure (SMILES): CCc1cn([C@@H]2C[C@H](c3ccccc3)[C@@H](O)[C@H]2O)c2ncnc(N)c12 [Compound 396, (1R,2S,3R,5R)-3-(4-amino-5-ethyl-7H-pyrrolo[2,3-d]pyrimidin-7-yl)-5-phenylcyclopentane-1,2-diol]
pIC50 (KMT9 [1]; [4]): < 5.00
ΔTm at 500 µM (KMT9 [2]; [5]): ≤ 10 °C
pKd (KMT9 [3]; [6]): < 6.00

Other lines, results leading:

pIC50 (KMT9 [1]; [7]): 5.00 to 6.00
ΔTm at 500 µM (KMT9 [2]; [8]): ≤ 10 °C
pKd (KMT9 [3]; [9]): 6.00 to 7.00
Structure (SMILES): COc1cc(OC)cc([C@H]2C[C@@H](n3cc(-c4ccn(Cc5ccccc5)n4)c4c(N)nc(Cl)nc43)[C@H](O)[C@@H]2O)c1 [Compound 679, (1R,2S,3R,5R)-3-[4-amino-5-(1-benzylpyrazol-3-yl)-2-chloropyrrolo[2,3-d]pyrimidin-7-yl]-5-(3,5-dimethoxyphenyl)cyclopentane-1,2-diol]

pIC50 (KMT9 [1]; [7]): 6.00 to 7.00
ΔTm at 500 µM (KMT9 [2]; [8]): 10 to 15 °C
pKd (KMT9 [3]; [9]): ≥ 8.00
Structure (SMILES): Nc1nc(Cl)nc2c1ccn2[C@@H]1C[C@H](c2ccc(O)cc2)[C@@H](O)[C@H]1O [Compound 655]

pIC50 (KMT9 [1]; [7]): 5.00 to 6.00
ΔTm at 500 µM (KMT9 [2]; [8]): 15 to 20 °C
pKd (KMT9 [3]; [9]): ≥ 8.00
Structure (SMILES): C=CCN1CCC([C@H]2C[C@@H](n3cc(-c4nc(Cc5ccccc5)cs4)c4c(N)nc(Cl)nc43)[C@H](O)[C@@H]2O)CC1 [Compound 509, (1R,2S,3R,5R)-3-[4-amino-5-(4-benzyl-1,3-thiazol-2-yl)-2-chloropyrrolo[2,3-d]pyrimidin-7-yl]-5-[1-(prop-2-en-1-yl)piperidin-4-yl]cyclopentane-1,2-diol]

pIC50 (KMT9 [1]; [7]): 6.00 to 7.00
ΔTm at 500 µM (KMT9 [2]; [8]): 10 to 15 °C
pKd (KMT9 [3]; [9]): 7.00 to 8.00
Structure (SMILES): COc1ccc([C@H]2C[C@@H](n3ccc4c(N)nc(Cl)nc43)[C@H](O)[C@@H]2O)cn1 [Compound 591, (1R,2S,3R,5R)-3-{4-amino-2-chloropyrrolo[2,3-d]pyrimidin-7-yl}-5-(6-methoxypyridin-3-yl)cyclopentane-1,2-diol]

pIC50 (KMT9 [1]; [4]): < 5.00
ΔTm at 500 µM (KMT9 [2]; [5]): ≤ 10 °C
pKd (KMT9 [3]; [6]): < 6.00
Structure (SMILES): Nc1ncnc2c1ccn2[C@@H]1C[C@H](c2cccc(-c3cn[nH]c3)c2)[C@@H](O)[C@H]1O [Compound 652, (15,2R,3R,5R)-3-(3-(1H-pyrazol-4-yl)phenyl)-5-(4-amino-7H-pyrrolo[2,3-d]pyrimidin-7-yl)cyclopentane-1,2-diol]

pIC50 (KMT9 [1]; [7]): 5.00 to 6.00
ΔTm at 500 µM (KMT9 [2]; [8]): 10 to 15 °C
pKd (KMT9 [3]; [9]): 7.00 to 8.00
Structure (SMILES): COc1cc(-c2cnsc2)cc([C@H]2C[C@@H](n3ccc4c(N)nc(Cl)nc43)[C@H](O)[C@@H]2O)c1 [Compound 667, (1R,2S,3R,5R)-3-(4-amino-2-chloro-7H-pyrrolo[2,3-d]pyrimidin-7-yl)-5-(3-(isothiazol-4-yl)-5-methoxyphenyl)cyclopentane-1,2-diol]

pIC50 (KMT9 [1]; [7]): < 5.00
ΔTm at 500 µM (KMT9 [2]; [8]): ≤ 10 °C
pKd (KMT9 [3]; [9]): < 6.00
Structure (SMILES): CNc1ncnc2c1ccn2[C@@H]1C[C@H](c2cn[nH]c2)[C@@H](O)[C@H]1O [Compound 657, (1R,2S,3R,5R)-3-[4-(Methylamino)pyrrolo[2,3-d]pyrimidin-7-yl]-5-(1H-pyrazol-4-yl)cyclopentane-1,2-diol]

pIC50 (KMT9 [1]; [7]): 6.00 to 7.00
ΔTm at 500 µM (KMT9 [2]; [8]): > 20 °C
pKd (KMT9 [3]; [9]): ≥ 8.00
Structure (SMILES): Nc1nc(Cl)nc2c1c(-c1nccs1)cn2[C@@H]1CC(CN(CCCNCCc2ccc(F)cc2)c2cn[nH]c2)[C@@H](O)[C@H]1O (single isomer, unassigned) [Compound 543]

pIC50 (KMT9 [1]; [7]): > 7.00
ΔTm at 500 µM (KMT9 [2]; [8]): 15 to 20 °C
pKd (KMT9 [3]; [9]): ≥ 8.00
Structure (SMILES): NCc1cccc([C@H]2C[C@@H](n3ccc4c(N)nc(Cl)nc43)[C@H](O)[C@@H]2O)c1 [Compound 660, (1R,2S,3R,5R)-3-{4-Amino-2-chloropyrrolo[2,3-d]pyrimidin-7-yl}-5-[3-(aminomethyl)phenyl]cyclopentane-1,2-diol]
